# Patent US5206238A, “Cholecystokinin antagonists” (Merck & Co., Inc., priority 1992, dated 1993)
# Assays:
# DBA2 mice [1] = experiment: black/white exploration test (animal model of anxiety); format: in vivo; details: for active dose range: anxiolytic properties in mice
# Description: The black/white exploration test [Crawley et al. Pharmacology, Biochemistry and Behav. 13, 167 (1980)] is a simple animal model of anxiety. Rodents placed in a two compartment box which consists of a brightly lit, white painted side and a dimly lit, black painted side, display a marked preference for the black side of the apparatus. This behavior is caused by the aversive properties of the brightly lit, white painted section. Classical anxiolytic drugs [such as diazepam, see Crawley, supra] and novel anxiolytic drugs [such as 5HT3 antagonists, see Jones et al. Br. J. Pharm.
# A. Naive male DBA2 mice (25-30) were housed on a reversed light/dark cycle and tested during the dark phase of the cycle under dim red light. The apparatus consisted of an open topped box (40 cm long×27 cm wide×27 cm high) divided into a small area (2/5) and a large area (3/5) by a partition that extended 20 cm above the walls. There was a 7.5×7.5 cm opening in the partition at floor level. The small compartment was painted black and the large compartment white. The floor of each compartment was marked into 9 cm squares. The white compartment was illuminated by a 100 W tungsten bulb 17 cm above the box and the black compartment by a similarly placed 60 W red bulb.
# Animals that had been injected with drug or vehicle were placed individually into the center of the white area and their behavior observed during a 5 minute period by remote video recording. Four behavioral parameters were recorded every minute: the number of exploratory rears in the white and black sections, the number of line crossings in the black and white sections, the number of transitions between the two sections and the time spent in the black and white sections. Animals were tested in treatment groups of 8-10 and vehicle controls were run on each test day. Data were analysed by ANOVA and Dunnetts test.
# humans = details: reported studies; cited from earlier work
# Sprague Dawley rats [2] = experiment: exploratory/locomotor activity in automated activity cages; format: in vivo, rat
# Procedure: B. The effects of CCK-8 and compound A on the exploratory behavior of the rat were examined in automated activity cages and by direct observation. […] [See Crawley, Pharm. Biochem & Behav. 20, 23-27 (1984).]
# Male Sprague Dawley rats were injected ([…].) with CCK-8 and immediately placed in automated activity cages. Activity was measured for 30 minutes past injection.
# Male SD rats were injected (s.c.) with the CCK antagonist compound A (0.0001-10 mg/kg) and immediately placed in the automated activity cages.
# Sprague Dawley rats [3] = details: cited from earlier work
# DBA2 mice [4] = details: rodents, literature (Crawley); cited from earlier work
# rats = experiment: direct observation of motoric behaviors in a novel environment (perspex cage); format: in vivo, rat; details: 0.1 mg/kg, 15 minute period 15 minutes after treatment
# Procedure: In order to assess further the effect of Compound A on exploration in a novel environment, the motoric hehaviors of rats placed in a perspex cage was recorded by direct observation for a 15 minute period 15 minutes after treatment with Compound A.
# Experimenters (unaware of the treatments the animals had received) recorded the frequency and duration of rearing, sniffing, grooming and cage crossing using a keypad interfaced to a BBC microcomputer.
molecule,measurement,setting,value
"Cc1cccc(NC(=O)N[C@@H]2N=C(c3ccccc3)c3ccccc3N(C)C2=O)c1 [Compound B, (R)-N-(2,3-dihydro-1-methyl-2-oxo-5-phenyl-1H-1,4-benzodiazepin-3-yl)-N'-(3-methylphenyl)urea]",active dose range,DBA2 mice [1],0.005 to 0.05 µg/kg
same,difference in time spent in the black and white side,"DBA2 mice [1]; dose of 0.005 ug/kg, male DBA2 mice",decreased
same,preference for rearing in the black side,"DBA2 mice [1]; dose of 0.05 ug/kg, male DBA2 mice",abolished
CCK-4,induction of panic,humans,induce panic
"CCK-8: carboxylterminal octapeptide of CCK-33, a naturally-occurring neuropeptide and the minimum fully active sequence",induction of panic,humans,induced gastrointestinal effects but not panic symptoms
same,locomotor activity,"Sprague Dawley rats [2]; 0.5-16 μg/kg i.p., 30 minutes past injection, novel environment",dose-dependently decreased
same,exploratory behavior in a novel environment,"Sprague Dawley rats [3]; exogenous CCK-8, literature (Crawley)",decreases exploratory behavior
CN1C(=O)CN=C(c2ccccc2)c2cc(Cl)ccc21 [diazepam],preference of the animal for the black dimly lit side,DBA2 mice [4],decrease the preference
"CN1C(=O)[C@@H](NC(=O)c2cc3ccccc3[nH]2)N=C(c2ccccc2)c2ccccc21 [Compound A, 3(S)-(-)-1,3-dihydro-3-(2-indolecarbonylamino)-1-methyl-5-phenyl-2H-1,4-benzodiazepin-2-one]",habituation and period of exploratory activity,Sprague Dawley rats [2]; 0.0001-10 mg/kg s.c.,delayed habituation and prolonged the period of exploratory activity
same,levels of activity at 25 minutes,"Sprague Dawley rats [2]; 0.1 mg/kg s.c., 25 minutes",significantly above controls
same,effect on activity at 25 minutes,Sprague Dawley rats [2]; higher and lower doses than 0.1 mg/kg s.c. (bell-shaped dose response),no significant effect
same,preference for locomotion (line crossings) in the black side,"DBA2 mice [1]; 0.5, 5.0 and 500 ug/kg, male DBA2 mice",abolished
same,difference in time spent in the black and white side,"DBA2 mice [1]; 5.0 and 500 ug/kg, male DBA2 mice",abolished
same,active dose range,DBA2 mice [1],0.05 to 5.0 µg/kg
same,preference for rearing in the black side,"DBA2 mice [1]; doses of 0.05, 0.5, 5.0 and 500 ug/kg, male DBA2 mice",significantly decreased
same,cage crossing,rats,significantly increased
same,rearing,rats,significantly increased
same,sniffing,rats,significantly increased
CNC1=Nc2ccc(Cl)cc2C(c2ccccc2)=[N+]([O-])C1 [chlordiazepoxide],spontaneous locomotor activity in a novel environment,Sprague Dawley rats [3]; literature (McElroy et al.),increases spontaneous locomotor activity
